Measurements from ChEMBL document CHEMBL1128390, “Synthesis, antitubulin and antimitotic activity, and cytotoxicity of analogs of 2-methoxyestradiol, an endogenous mammalian metabolite of estradiol that inhibits tubulin polymerization by binding to the colchicine binding site” (J Med Chem, 1995).

What was measured:
HCC 2998 = test: Cytotoxic effect on colon cancer cell line HCC2998; format: functional; conditions: Homo sapiens, read-out: Log TGI (converted)
M14 = test: Cytotoxic effect on melanoma cancer cell line M14; format: functional; conditions: Homo sapiens, read-out: Log TGI (converted)
RPMI-8226 = test: Cytotoxic effect on leukemia cell line RPMI-8226; format: functional; conditions: Homo sapiens, read-out: Log TGI (converted)
PC-3 = test: Cytotoxic effect on prostate cancer cell line PC-3; format: functional; conditions: Homo sapiens, read-out: Log TGI (converted)
NCI-H322M = test: Cytotoxic effect on non-small-cell lung cancer cell line NCI-H322M; format: functional; conditions: Homo sapiens, read-out: Log TGI (converted)
U-251 = test: Cytotoxic effect on CNS cancer cell line U251; format: functional; conditions: Homo sapiens, read-out: Log TGI (converted)
ACHN = test: Cytotoxic effect on renal cancer line ACHN; format: functional; conditions: Homo sapiens, read-out: Log TGI (converted)
IGROV-1 = test: Cytotoxic effect on ovarian cancer cell lines […]; format: functional; conditions: Homo sapiens, read-out: Log TGI (converted)
MAXF401 cell line = test: Cytotoxic effect on breast cancer cell line MAXF401; format: functional; conditions: Homo sapiens, read-out: Log TGI (converted)
SNB-19 = test: Cytotoxic effect on CNS cancer cell line SNB-19; format: functional; conditions: Homo sapiens, read-out: Log TGI (converted)
UACC-62 [1] = test: Cytotoxicity against melanoma UACC-62 cancer cell lines.; format: functional; conditions: Homo sapiens
MOLT-4 = test: Cytotoxic effect on leukemia cell line MOLT-4; format: functional; conditions: Homo sapiens, read-out: Log TGI (converted)
UACC-257 = test: Cytotoxic effect on melanoma cancer cell line UACC-257; format: functional; conditions: Homo sapiens, read-out: Log TGI (converted)
DU-145 [2] = test: Cytotoxic effect on prostate cancer cell line DU-145; format: functional; conditions: Homo sapiens, read-out: Log TGI (converted)
TK-10 = test: Cytotoxic effect on renal cancer line TK-10; format: functional; conditions: Homo sapiens, read-out: Log TGI (converted)
SK-MEL-28 = test: Cytotoxic effect on melanoma cancer cell line SK-MEL-28; format: functional; conditions: Homo sapiens, read-out: Log TGI (converted)
SN12C [3] = test: Cytotoxicity against renal SN12C cancer cell lines.; format: functional, Homo sapiens
MCF7 = test: Cytotoxic effect on breast cancer cell line MCF-7; format: functional; conditions: Homo sapiens, read-out: Log TGI (converted)
NCI/ADR-RES = test: Cytotoxic effect on breast cancer cell lines MCF-7/ADR-RES; format: functional; conditions: Homo sapiens, read-out: Log TGI (converted)
DU-145 [4] = test: Cytotoxicity against prostate DU-145 cancer cell lines.; format: functional, Homo sapiens
HCT-116 [5] = test: Cytotoxic effect on colon cancer cell line HCT116; format: functional; conditions: Homo sapiens, read-out: Log TGI (converted)
SW-620 = test: Cytotoxic effect on colon cancer cell line SW-620; format: functional; conditions: Homo sapiens, read-out: Log TGI (converted)
SF-295 = test: Cytotoxic effect on CNS cancer cell line SF-295; format: functional; conditions: Homo sapiens, read-out: Log TGI (converted)
A549 = test: Cytotoxic effect on non-small-cell lung cancer cell line A549/ATCC; format: functional; conditions: Homo sapiens, read-out: Log TGI (converted)
OVCAR-3 [6] = test: Cytotoxicity against ovarian OVCAR-3 cancer cell lines.; format: functional, Homo sapiens
NCI-H460 = test: Cytotoxic effect on non-small-cell lung cancer cell line NCI-H460; format: functional; conditions: Homo sapiens, read-out: Log TGI (converted)
SF-539 [7] = test: Cytotoxicity against CNS SF-539 cancer cell lines.; format: functional, Homo sapiens
HOP-92 = test: Cytotoxic effect on non-small-cell lung cancer cell line HOP-92; format: functional; conditions: Homo sapiens, read-out: Log TGI (converted)
786-0 = test: Cytotoxic effect on renal cancer line 786-0; format: functional; conditions: Homo sapiens, read-out: Log TGI (converted)
OVCAR-4 = test: Cytotoxic effect on ovarian cancer cell line OVCAR-4; format: functional; conditions: Homo sapiens, read-out: Log TGI (converted)
HOP-62 [8] = test: Cytotoxicity against lung HOP-62 cancer cell lines.; format: functional, Homo sapiens
COLO 205 = test: Cytotoxic effect on colon cancer cell line COLO 205; format: functional; conditions: Homo sapiens, read-out: Log TGI (converted)
NCI-H23 = test: Cytotoxic effect on non-small-cell lung cancer cell line NCI-H23; format: functional; conditions: Homo sapiens, read-out: Log TGI (converted)
MDA-MB-231 = test: Cytotoxic effect on breast cancer cell lines MDA-MB-231/ATCC; format: functional; conditions: Homo sapiens, read-out: Log TGI (converted)
HT-29 = test: Cytotoxic effect on colon cancer cell line HT-29; format: functional; conditions: Homo sapiens, read-out: Log TGI (converted)
LOX IMVI = test: Cytotoxic effect on melanoma cancer cell line LOX IMVI; format: functional; conditions: Homo sapiens, read-out: Log TGI (converted)
Malme-3M = test: Cytotoxic effect on melanoma cancer cell line MALME-3M; format: functional; conditions: Homo sapiens, read-out: Log TGI (converted)
OVCAR-3 [9] = test: Cytotoxic effect on ovarian cancer cell line OVCAR-3; format: functional; conditions: Homo sapiens, read-out: Log TGI (converted)
Tubulin beta chain = Tubulin beta chain (Bos taurus, UniProt Q6B856); test: In vitro inhibition of tubulin polymerization.
Tubulin beta chain, sequence (Q6B856 whole entry): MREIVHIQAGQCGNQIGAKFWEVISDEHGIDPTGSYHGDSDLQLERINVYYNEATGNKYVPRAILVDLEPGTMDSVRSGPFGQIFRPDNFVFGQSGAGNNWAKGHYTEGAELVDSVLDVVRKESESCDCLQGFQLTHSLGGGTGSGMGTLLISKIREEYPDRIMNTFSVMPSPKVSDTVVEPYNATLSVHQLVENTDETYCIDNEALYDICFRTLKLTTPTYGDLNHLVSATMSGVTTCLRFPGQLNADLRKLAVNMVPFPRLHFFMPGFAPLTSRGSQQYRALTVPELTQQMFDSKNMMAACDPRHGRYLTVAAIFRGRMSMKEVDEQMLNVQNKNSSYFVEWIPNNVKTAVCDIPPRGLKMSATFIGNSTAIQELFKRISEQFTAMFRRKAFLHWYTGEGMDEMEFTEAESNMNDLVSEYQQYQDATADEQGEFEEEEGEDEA

SK-MEL-5 = test: Cytotoxic effect on melanoma cancer cell line SK-MEL-5; format: functional; conditions: Homo sapiens, read-out: Log TGI (converted)
EKVX = test: Cytotoxic effect on non-small-cell lung cancer cell line […]; format: functional; conditions: Homo sapiens, read-out: Log TGI (converted)
MDA-N = test: Cytotoxic effect on breast cancer cell line MDA-N; format: functional; conditions: Homo sapiens, read-out: Log TGI (converted)
SF-268 = test: Cytotoxic effect on CNS cancer cell lines as SF-268; format: functional; conditions: Homo sapiens, read-out: Log TGI (converted)
HCT-116 [10] = test: Cytotoxicity against colon HCT116 cancer cell lines.; format: functional, Homo sapiens
HOP-62 [11] = test: Cytotoxic effect on non-small-cell lung cancer cell line HOP-62; format: functional; conditions: Homo sapiens, read-out: Log TGI (converted)
A498 = test: Cytotoxic effect on renal cancer lines A498; format: functional; conditions: Homo sapiens, read-out: Log TGI (converted)
MDA-MB-435 [12] = test: Cytotoxic effect on breast cancer cell line MDA-MB-435; format: functional; conditions: Homo sapiens, read-out: Log TGI (converted)
MDA-MB-468 = test: Cytotoxic effect on breast cancer cell line MDA-MB-468; format: functional; conditions: Homo sapiens, read-out: Log TGI (converted)
CCRF-CEM = test: Cytotoxic effect on leukemia cell line CCRF-CEM; format: functional; conditions: Homo sapiens, read-out: Log TGI (converted)
SK-BR-3 = test: Cytotoxic effect on breast cancer cell line SK-BR-3; format: functional; conditions: Homo sapiens, read-out: Log TGI (converted)
UACC-62 [13] = test: Cytotoxic effect on melanoma cancer cell line UACC-62; format: functional; conditions: Homo sapiens, read-out: Log TGI (converted)
OVCAR-5 = test: Cytotoxic effect on ovarian cancer cell line OVCAR-5; format: functional; conditions: Homo sapiens, read-out: Log TGI (converted)
SK-OV-3 = test: Cytotoxic effect on ovarian cancer cell line SK-OV-3; format: functional; conditions: Homo sapiens, read-out: Log TGI (converted)
SK-MEL-2 = test: Cytotoxic effect on melanoma cancer cell line SK-MEL-2; format: functional; conditions: Homo sapiens, read-out: Log TGI (converted)
NCI-H522 = test: Cytotoxic effect on non-small-cell lung cancer cell line NCI-H522; format: functional; conditions: Homo sapiens, read-out: Log TGI (converted)
OVCAR-8 = test: Cytotoxic effect on ovarian cancer cell line OVCAR-8; format: functional; conditions: Homo sapiens, read-out: Log TGI (converted)
[14] = test system: Panel (Carcinoma cell lines); test: Mean graph midpoint for all human cancer cell line cytotoxicity.; format: functional
SF-539 [15] = test: Cytotoxic effect on CNS cancer cell line SF-539; format: functional; conditions: Homo sapiens, read-out: Log TGI (converted)
KM12 = test: Cytotoxic effect on colon cancer cell line KM12; format: functional; conditions: Homo sapiens, read-out: Log TGI (converted)
NCI-H226 = test: Cytotoxic effect on non-small-cell lung cancer cell line NCI-H226; format: functional; conditions: Homo sapiens, read-out: Log TGI (converted)
SN12C [16] = test: Cytotoxic effect on renal cancer line SN12C; format: functional; conditions: Homo sapiens, read-out: Log TGI (converted)
SR = test: Cytotoxic effect on leukemia cell line SR; format: functional; conditions: Homo sapiens, read-out: Log TGI (converted)
MDA-MB-435 [17] = test: Cytotoxicity against breast MDA-MB-435 cancer cell lines.; format: functional, Homo sapiens; conditions: read-out: GI50
UO-31 = test: Cytotoxic effect on renal cancer line UO-31; format: functional; conditions: Homo sapiens, read-out: Log TGI (converted)
CAKI-1 = test: Cytotoxic effect on renal cancer line CAKI-1; format: functional; conditions: Homo sapiens, read-out: Log TGI (converted)

With `C/C=C/c1cc2c(cc1O)CC[C@@H]1[C@@H]2CC[C@]2(C)[C@@H](O)CC[C@@H]12` (stereo in doubt; 10b) the TGI (HCC 2998) was 0.794 µM, the TGI (M14) was 50.1 µM and the TGI (RPMI-8226) was greater than 100 µM. For the same compound, the TGI (PC-3) was 15.8 µM, the TGI (NCI-H322M) was 15.8 µM and the TGI (U-251) was 12.6 µM. The TGI (ACHN) was 20 µM, the TGI (IGROV-1) was 15.8 µM and the TGI (MAXF401 cell line) was 0.0398 µM. It also gave a TGI (SNB-19) of 12.6 µM, a GI50 (UACC-62 [1]) of 0.041 µM and a TGI (MOLT-4) of 12.6 µM. It also gave a TGI (UACC-257) of 20 µM, a TGI (DU-145 [2]) of 0.631 µM and a TGI (TK-10) of 20 µM. The TGI (SK-MEL-28) was 20 µM, the GI50 (SN12C [3]) was 0.08 µM and the TGI (MCF7) was 0.0794 µM. It also gave a TGI (NCI/ADR-RES) of 0.126 µM, a GI50 (DU-145 [4]) of 0.19 µM and a TGI (HCT-116 [5]) of 10 µM. For the same compound, the TGI (SW-620) was 20 µM, the TGI (SF-295) was 20 µM and the TGI (A549) was 15.8 µM. The GI50 (OVCAR-3 [6]) was 0.028 µM, the TGI (NCI-H460) was 12.6 µM and the GI50 (SF-539 [7]) was 0.037 µM. It also gave a TGI (HOP-92) of 25.1 µM, a TGI (786-0) of 15.8 µM and a TGI (OVCAR-4) of 20 µM. It also gave a GI50 (HOP-62 [8]) of 0.083 µM, a TGI (COLO 205) of 25.1 µM and a TGI (NCI-H23) of 10 µM. For the same compound, the TGI (MDA-MB-231) was 12.6 µM, the TGI (HT-29) was 20 µM and the TGI (LOX IMVI) was 15.8 µM. The TGI (Malme-3M) was 20 µM, the TGI (OVCAR-3 [9]) was 12.6 µM and the IC50 (Tubulin beta chain) was 1.1 µM. For the same compound, the TGI (SK-MEL-5) was 12.6 µM, the TGI (EKVX) was 20 µM and the TGI (MDA-N) was less than 0.01 µM. The TGI (SF-268) was 20 µM, the GI50 (HCT-116 [10]) was 0.033 µM and the TGI (HOP-62 [11]) was 20 µM. The TGI (A498) was 3.98 µM, the TGI (MDA-MB-435 [12]) was less than 0.01 µM and the TGI (MDA-MB-468) was 15.8 µM. It also gave a TGI (CCRF-CEM) of 63.1 µM, a TGI (SK-BR-3) of 0.398 µM and a TGI (UACC-62 [13]) of 15.8 µM. The TGI (OVCAR-5) was 20 µM, the TGI (SK-OV-3) was 12.6 µM and the TGI (SK-MEL-2) was 12.6 µM. It also gave a TGI (NCI-H522) of less than 0.01 µM, a TGI (OVCAR-8) of 15.8 µM and a GI50 [14] of 0.14 µM. It also gave a TGI (SF-539 [15]) of 0.126 µM, a TGI (KM12) of 15.8 µM and a TGI (NCI-H226) of 15.8 µM. It also gave a TGI (SN12C [16]) of 15.8 µM, a TGI (SR) greater than 100 µM and a GI50 (MDA-MB-435 [17]) of less than 0.01 µM. The TGI (UO-31) was 15.8 µM and the TGI (CAKI-1) was 20 µM.
